Laboratory results: PubChem BioAssay (NCI)
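Here, GI50 denotes the concentration required for 50% inhibition of growth. TGI: concentration producing complete growth inhibition.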

Experiments:
Assay in all cases: inhibition of tumour cell growth, NCI panel, 384-well format
[1] = tested on: MDA-MB-468 breast
[2] = tested on: MOLT-4 leukemia
[3] = tested on: EKVX NSCLC
[4] = tested on: HCC-2998 colon
[5] = tested on: SK-OV-3 ovarian
[6] = tested on: SN12C renal
[7] = tested on: U251 glioblastoma
[8] = tested on: SF-268 CNS
[9] = tested on: HCT-116 colon
[10] = tested on: M14 melanoma
[11] = tested on: A498 renal
[12] = tested on: CCRF-CEM leukemia
[13] = tested on: HOP-62 NSCLC
[14] = tested on: SK-MEL-28 melanoma
[15] = tested on: OVCAR-5 ovarian
[16] = tested on: RXF 393 renal
[17] = tested on: T-47D breast
[18] = tested on: NCI-H23 lung
[19] = tested on: IGROV1 ovarian
[20] = tested on: ACHN renal
[21] = tested on: OVCAR-3 ovarian
[22] = tested on: HL-60(TB) leukemia
[23] = tested on: NCI-H322M lung
[24] = tested on: LOX IMVI melanoma
[25] = tested on: UACC-62 melanoma
[26] = tested on: MCF7 breast
[27] = tested on: SF-295 CNS
[28] = tested on: HT29 colon
[29] = tested on: KM12 colon

Molecule N#Cc1ccc(-c2c(-c3ncn[nH]3)sc(N3CCOCC3)c2C#N)c(F)c1 has a GI50 [1] of 0.54 µM, a TGI [1] of 2.68 µM and a GI50 [2] of 0.413 µM. It also gave a TGI [2] of 1.71 µM, a GI50 [3] of 0.368 µM and a TGI [3] of 3.44 µM. The GI50 [4] was 1.23 µM, the TGI [4] was 10.8 µM and the GI50 [5] was 0.315 µM. It also gave a TGI [5] of 5.89 µM, a GI50 [6] of 0.145 µM and a TGI [6] of 3.77 µM. For the same molecule, the GI50 [7] was 7.2 µM, the TGI [7] was over 80.6 µM and the GI50 [8] was 4.1 µM. The TGI [8] was 33 µM, the GI50 [9] was 1.52 µM and the TGI [9] was 38.5 µM. The GI50 [10] was 2.95 µM, the TGI [10] was 31.8 µM and the GI50 [11] was 0.577 µM. It also gave a TGI [11] of 2.67 µM, a GI50 [12] of 2.21 µM and a TGI [12] of 9.61 µM. The GI50 [13] was 3.4 µM, the TGI [13] was 21 µM and the GI50 [14] was 1.76 µM. For the same molecule, the TGI [14] was over 67.9 µM, the GI50 [15] was 1.01 µM and the TGI [15] was 26.1 µM. It also gave a GI50 [16] of 1.27 µM, a TGI [16] of 7.45 µM and a GI50 [17] of 0.152 µM. It also gave a TGI [17] of 2.54 µM, a GI50 [18] of 2.35 µM and a TGI [18] of over 55.3 µM. For the same molecule, the GI50 [19] was 0.191 µM, the TGI [19] was 0.631 µM and the GI50 [20] was 0.525 µM. For the same molecule, the TGI [20] was 14.2 µM, the GI50 [21] was 0.837 µM and the TGI [21] was 5.83 µM. For the same molecule, the GI50 [22] was 0.209 µM, the TGI [22] was 1.44 µM and the GI50 [23] was 1.32 µM. It also gave a TGI [23] of 5.36 µM, a GI50 [24] of 1.93 µM and a TGI [24] of 13.5 µM. For the same molecule, the GI50 [25] was 1.01 µM, the TGI [25] was 10.8 µM and the GI50 [26] was 0.222 µM. For the same molecule, the TGI [26] was 20.6 µM, the GI50 [27] was 1.24 µM and the TGI [27] was 15.7 µM. It also gave a GI50 [28] of 0.9 µM, a TGI [28] of 17.9 µM and a GI50 [29] of 3.64 µM. It also gave a TGI [29] of 20.3 µM.
